Data taken from publication PMC8839210, “Identification of Inhibitory Activities of Dietary Flavonoids against URAT1, a Renal Urate Re-Absorber: In Vitro Screening and Fractional Approach Focused on Rooibos Leaves” (Nutrients, 2022).

How the values were obtained:
URAT1 [1] = target: T1, URAT1 (Homo sapiens, UniProt Q96S37); test: Urate transport assay using URAT1-expressing 293A cells; type: cell-based; details: for remaining activity at 100 µM: 293A, authentic chemical 100 μM, mean ± S.D., n = 3, read-out: URAT1-mediated urate transport activity, % of the control; for remaining activity at 100 µM / IC50: 20 s; for IC50: [14C]-urate 5 μM, 37 °C, URAT1-expressing 293A cells, read-out: IC50 against URAT1-mediated urate transport
T1 construct: The complete human URAT1 cDNA in pEGFP-C1; expressed in transfected cells; host or cells: 293A cells (human embryonic kidney 293-derived), transient transfection with PEI-MAX
T1 sequence (Q96S37 1-553): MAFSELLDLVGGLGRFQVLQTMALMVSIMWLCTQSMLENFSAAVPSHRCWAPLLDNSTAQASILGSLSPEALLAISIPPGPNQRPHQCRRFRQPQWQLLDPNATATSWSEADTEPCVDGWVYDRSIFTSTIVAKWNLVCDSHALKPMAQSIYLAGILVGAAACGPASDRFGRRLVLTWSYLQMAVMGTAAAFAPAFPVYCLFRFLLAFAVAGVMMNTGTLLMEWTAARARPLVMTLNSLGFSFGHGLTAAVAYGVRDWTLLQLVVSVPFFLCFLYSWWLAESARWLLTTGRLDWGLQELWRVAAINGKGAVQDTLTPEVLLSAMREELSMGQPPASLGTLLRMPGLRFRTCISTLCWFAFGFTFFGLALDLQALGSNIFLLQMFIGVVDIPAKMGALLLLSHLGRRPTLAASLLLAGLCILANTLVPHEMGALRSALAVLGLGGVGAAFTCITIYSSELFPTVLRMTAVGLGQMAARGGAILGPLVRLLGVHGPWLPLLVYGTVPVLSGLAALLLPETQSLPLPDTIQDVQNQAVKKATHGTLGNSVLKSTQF
Experimental: After 24 h, each vector was transiently transfected into the cells (1 μg of plasmid/5 μL of PEI-MAX/well). At 24 h after transfection, the culture medium was replaced with fresh one.
Briefly, 48 h after plasmid transfection, cells were washed twice with Buffer T2 and then pre-incubated in Buffer T2 for 15 min at 37 °C. Then, the buffer was exchanged with pre-warmed fresh Buffer T2 containing radiolabeled urate ([8-^14C]-uric acid; final concentration, 5 μM) with or without the test compound at the indicated concentrations (0, 0.3, 1, 3, 10, 30, 100, 300, or 500 μM); the cells were further incubated for 20 s at 37 °C; as vehicle control, 1% DMSO was used in this study. Subsequently, the cells were washed five times with ice-cold Buffer T2; then, the cells were lysed with 0.2 M NaOH solution (500 μL/well) on ice. The resulting lysates were neutralized with 1 M HCl solution (100 μL/well). […] Using a Pierce BCA Protein Assay Kit (Thermo Fisher Scientific, Kanagawa, Japan), protein concentration was determined. Urate transport activity was calculated as the incorporated clearance (μL/mg protein/min): (incorporated level of urate [DPM/mg protein/min]/urate level in the incubation mixture [DPM/μL]). URAT1-dependent urate transport activity was calculated by subtracting the urate transport activity of mock (control) cells from that of URAT1-expressing cells.
Urate uptake was examined in the presence of several concentrations of each test compound to determine their IC50 values. Then, URAT1-mediated transport activities were expressed as a percentage of the control (100%).

[2] = tested on: xanthine oxidoreductase (XOD); details: cited from earlier work
[3] = set-up: method as in PMID 26785820; details: healthy males, four weeks, cited from earlier work
URAT1 [4] = target: T1, URAT1; details: cited from earlier work

Row | SMILES | remaining activity at 100 µM (URAT1 [1]) [%] | IC50 (URAT1 [1]) [µM] | other results
1 | O=c1cc(-c2ccc(O)c(O)c2)oc2cc(O)cc(O)c12 [Luteolin] | < 50 | 25.7 | 
2 | O=c1c(-c2ccc(O)cc2)coc2cc(O)cc(O)c12 [Genistein] | < 50 | 101 | 
3 | O=c1c(O)c(-c2ccc(O)c(O)c2)oc2c(O)c(O)cc(O)c12 [Gossypetin] | < 50 | 31.3 | 
4 | O=c1c(O)c(-c2ccc(O)c(O)c2)oc2cc(O)ccc12 [Fisetin] | < 50 | 7.5 | 
5 | O=c1c(O)c(-c2ccc(O)c(O)c2)oc2cc(O)cc(O)c12 [Quercetin] |  | 12.6 | XOD inhibition (in words) [2]: inhibitory activity; Plasma uric acid concentration, mean difference ([3]; 500 mg quercetin daily as single tablet, mean plasma uric acid 5.5 mg/dL): -0.45 mg/dL; Urinary uric acid output over 24 h (24 h-UUA), before vs after treatment ([3]; 500 mg quercetin daily): no significant difference; Effect on URAT1-mediated urate transport (in words) (URAT1 [1]; 300 μM, experimentally maximum concentration): inhibited URAT1
6 | O=C(/C=C/c1ccc(O)cc1)c1c(O)cc(O)cc1O [naringenin chalcone, Naringenin chalcone] | < 50 |  | 
7 | O=c1c(O)c(-c2ccc(O)cc2O)oc2cc(O)cc(O)c12 [morin, Morin] | < 50 |  | URAT1 inhibition (in words) (URAT1 [4]; previous report): URAT1 inhibitor
8 | O=c1c(O)c(-c2cc(O)c(O)c(O)c2)oc2cc(O)cc(O)c12 [Myricetin] | < 50 | 18.1 | 
9 | O=C1C[C@@H](c2ccc(O)cc2)Oc2cc(O)cc(O)c21 [naringenin, reference compound] |  |  | URAT1-mediated urate transport activity, % of the control (URAT1 [4]; 100 μM, previous study of the authors): 17.9 ± 7.7%
10 | O=C(CCc1ccc(O)c(O)c1)c1c(O)cc(O)c([C@@H]2O[C@H](CO)[C@@H](O)[C@H](O)[C@H]2O)c1O [aspalathin, reference compound] |  |  | XOD inhibition (in words) [2]: inhibits XOD
11 | O=c1c(O)c(-c2ccc(O)c(O)c2)oc2cc(O)c(O)c(O)c12 [Quercetagetin] | < 50 | 18.4 | 
